Measurements: ChEMBL document CHEMBL5705887, “Distinct concentration-dependent effects of the polo-like kinase 1-specific inhibitor GSK461364A, including differential effect on apoptosis” (Cancer Res, 2009)
The source made the active and inactive calls. The rule behind the calls is not given here.

Experiments:
NCI-H1155 = assay: Antiproliferative activity against human NCI-H1155 cells assessed as viable cell signal at maximum growth inhibition incubated for 72 hrs by celltiter-glo assay relative to control; format: functional
ASPC1 = assay: Antiproliferative activity against human ASPC1 cells assessed as of viable cell signal at minimum maximum cell growth incubated for 72 hrs by celltiter-glo assay relative to control; format: functional
MDA-MB-231 = assay: Antiproliferative activity against human MDA-MB-231 cells assessed as of viable cell signal at minimum maximum cell growth incubated for 72 hrs by celltiter-glo assay relative to control; format: functional
MDA-MB-453 = assay: Antiproliferative activity against human MDA-MB-453 cells assessed as of viable cell signal at minimum maximum cell growth incubated for 72 hrs by celltiter-glo assay relative to control; format: functional
SK-BR-3 [1] = assay: Antiproliferative activity against human SK-BR-3 cells assessed as of viable cell signal at minimum maximum cell growth incubated for 72 hrs by celltiter-glo assay relative to control; format: functional
A-427 [2] = assay: Antiproliferative activity against human A-427 cells assessed as growth inhibition incubated for 72 hrs by celltiter-glo assay; format: functional
NCI-H358 = assay: Antiproliferative activity against human NCI-H358 cells assessed as viable cell signal at maximum growth inhibition incubated for 72 hrs by celltiter-glo assay relative to control; format: functional
SJSA-1 [3] = assay: Antiproliferative activity against human SJSA-1 cells assessed as growth inhibition incubated for 72 hrs by celltiter-glo assay; format: functional
SK-BR-3 [4] = assay: Antiproliferative activity against human SK-BR-3 cells assessed as viable cell signal at maximum growth inhibition incubated for 72 hrs by celltiter-glo assay relative to control; format: functional
DLD-1 [5] = assay: Antiproliferative activity against human DLD-1 cells assessed as growth inhibition incubated for 72 hrs by celltiter-glo assay; format: functional
A-431 = assay: Antiproliferative activity against human A-431 cells assessed as growth inhibition incubated for 72 hrs by celltiter-glo assay; format: functional
[6] = target: Ribosomal protein S6 kinase alpha-1 (Rattus norvegicus) (UniProt Q63531); assay: Inhibition of recombinant rat RSK1 at 10 uM relative to control
U2OS = assay: Antiproliferative activity against human U2OS cells assessed as of viable cell signal at minimum maximum cell growth incubated for 72 hrs by celltiter-glo assay relative to control; format: functional
[7] = Antiproliferative activity against human A375P cells assessed as growth inhibition incubated for 72 hrs by celltiter-glo assay; format: functional
SW480 = assay: Antiproliferative activity against human SW480 cells assessed as growth inhibition incubated for 72 hrs by celltiter-glo assay; format: functional
SW-620 = assay: Antiproliferative activity against human SW620 cells assessed as growth inhibition incubated for 72 hrs by celltiter-glo assay; format: functional
NCI-H727 = assay: Antiproliferative activity against human NCI-H727 cells assessed as growth inhibition incubated for 72 hrs by celltiter-glo assay; format: functional
COLO 205 [8] = assay: Antitumor activity against human COLO 205 cells xenografted in Nude mouse assessed as increase in pHH3 level at 50 mg/kg, ip measured at 24 hrs by immunohistochemistry analysis; format: functional, organism-based
SCLC = assay: Antiproliferative activity against human SCLC cells assessed as viable cell signal at maximum growth inhibition incubated for 72 hrs by celltiter-glo assay relative to control; format: functional
NCI-H82 = assay: Antiproliferative activity against human NCI-H82 cells assessed as growth inhibition incubated for 72 hrs by celltiter-glo assay; format: functional
A-427 [9] = assay: Antiproliferative activity against human A-427 cells assessed as viable cell signal at maximum growth inhibition incubated for 72 hrs by celltiter-glo assay relative to control; format: functional
NCI-H522 = assay: Antiproliferative activity against human NCI-H522 cells assessed as of viable cell signal at minimum maximum cell growth incubated for 72 hrs by celltiter-glo assay relative to control; format: functional
[10] = target: Serine/threonine-protein kinase 10 (Homo sapiens) (UniProt O94804); assay: Inhibition of N-terminal his6-tagged recombinant human LOK (1 to 348 residues) expressed in baculovirus Sf21 cells at 10 uM relative to control
A498 = assay: Antiproliferative activity against human A498 cells assessed as growth inhibition incubated for 72 hrs by celltiter-glo assay; format: functional
SAOS-2 = assay: Antiproliferative activity against human SAOS-2 cells assessed as growth inhibition incubated for 72 hrs by celltiter-glo assay; format: functional
Panc 02.03 = assay: Antiproliferative activity against human Panc 02.03 cells assessed as viable cell signal at maximum growth inhibition incubated for 72 hrs by celltiter-glo assay relative to control; format: functional
HT-1080 = assay: Antiproliferative activity against human HT-1080 cells assessed as growth inhibition incubated for 72 hrs by celltiter-glo assay; format: functional
[11] = Antiproliferative activity against human PL45 cells assessed as viable cell signal at maximum growth inhibition incubated for 72 hrs by celltiter-glo assay relative to control; format: functional
U-87 MG = assay: Antiproliferative activity against human U-87 MG cells assessed as viable cell signal at maximum growth inhibition incubated for 72 hrs by celltiter-glo assay relative to control; format: functional, U-87MG ATCC
PANC-1 = assay: Antiproliferative activity against human PANC-1 cells assessed as viable cell signal at maximum growth inhibition incubated for 72 hrs by celltiter-glo assay relative to control; format: functional
NCI-H322M = assay: Antiproliferative activity against human NCI-H322M cells assessed as of viable cell signal at minimum maximum cell growth incubated for 72 hrs by celltiter-glo assay relative to control; format: functional
DLD-1 [12] = assay: Antiproliferative activity against human DLD-1 cells assessed as of viable cell signal at minimum maximum cell growth incubated for 72 hrs by celltiter-glo assay relative to control; format: functional
SK-MEL-5 = assay: Antiproliferative activity against human SK-MEL-5 cells assessed as viable cell signal at maximum growth inhibition incubated for 72 hrs by celltiter-glo assay relative to control; format: functional
COLO 205 [13] = assay: Antitumor activity against human COLO 205 cells xenografted in Nude mouse assessed as tumor regression at 50 mg/kg, ip administered one dose every 2 day repeated for 12 days; format: functional, organism-based; conditions: time 12.0 day
[14] = Cytotoxicity against human HUVEC cells assessed as inhibition of cell growth incubated for 72 hrs by celltiter-glo assay; format: toxicity, cell-based
SJSA-1 [15] = assay: Antiproliferative activity against human SJSA-1 cells assessed as viable cell signal at maximum growth inhibition incubated for 72 hrs by celltiter-glo assay relative to control; format: functional
PANC-08-13 = assay: Antiproliferative activity against human PANC-08-13 cells assessed as of viable cell signal at minimum maximum cell growth incubated for 72 hrs by celltiter-glo assay relative to control; format: functional
HeLa = assay: Antiproliferative activity against human HeLa cells assessed as growth inhibition incubated for 72 hrs by celltiter-glo assay; format: functional
T47D = assay: Antiproliferative activity against human T47D cells assessed as growth inhibition incubated for 72 hrs by celltiter-glo assay; format: functional
NCI-N87 = assay: Antiproliferative activity against human NCI-N87 cells assessed as of viable cell signal at minimum maximum cell growth incubated for 72 hrs by celltiter-glo assay relative to control; format: functional
K562 = assay: Antiproliferative activity against human K562 cells assessed as of viable cell signal at minimum maximum cell growth incubated for 72 hrs by celltiter-glo assay relative to control; format: functional

Sequence of Ribosomal protein S6 kinase alpha-1 (Rattus norvegicus) (Q63531 whole entry): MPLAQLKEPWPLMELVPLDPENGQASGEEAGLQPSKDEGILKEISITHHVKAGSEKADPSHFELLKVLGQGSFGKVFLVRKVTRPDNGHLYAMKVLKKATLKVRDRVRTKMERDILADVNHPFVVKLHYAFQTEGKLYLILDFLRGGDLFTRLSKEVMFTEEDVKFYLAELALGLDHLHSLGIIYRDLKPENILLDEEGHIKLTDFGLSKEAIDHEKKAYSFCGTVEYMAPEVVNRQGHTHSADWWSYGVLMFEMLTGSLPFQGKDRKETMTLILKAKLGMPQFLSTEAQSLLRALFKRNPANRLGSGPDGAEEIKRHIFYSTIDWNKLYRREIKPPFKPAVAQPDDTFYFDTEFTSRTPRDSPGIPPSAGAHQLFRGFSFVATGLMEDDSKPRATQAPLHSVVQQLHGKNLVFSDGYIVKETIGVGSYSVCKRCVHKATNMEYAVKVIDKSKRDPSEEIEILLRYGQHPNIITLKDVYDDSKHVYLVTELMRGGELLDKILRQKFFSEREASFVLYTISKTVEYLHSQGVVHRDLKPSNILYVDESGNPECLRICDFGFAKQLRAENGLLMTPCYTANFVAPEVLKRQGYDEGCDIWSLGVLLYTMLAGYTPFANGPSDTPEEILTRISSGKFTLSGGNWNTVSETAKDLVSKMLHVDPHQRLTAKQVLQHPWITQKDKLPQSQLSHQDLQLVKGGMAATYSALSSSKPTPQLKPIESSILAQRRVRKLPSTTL
Sequence of Serine/threonine-protein kinase 10 (Homo sapiens) (O94804 whole entry, looked up, the tested form may be a part): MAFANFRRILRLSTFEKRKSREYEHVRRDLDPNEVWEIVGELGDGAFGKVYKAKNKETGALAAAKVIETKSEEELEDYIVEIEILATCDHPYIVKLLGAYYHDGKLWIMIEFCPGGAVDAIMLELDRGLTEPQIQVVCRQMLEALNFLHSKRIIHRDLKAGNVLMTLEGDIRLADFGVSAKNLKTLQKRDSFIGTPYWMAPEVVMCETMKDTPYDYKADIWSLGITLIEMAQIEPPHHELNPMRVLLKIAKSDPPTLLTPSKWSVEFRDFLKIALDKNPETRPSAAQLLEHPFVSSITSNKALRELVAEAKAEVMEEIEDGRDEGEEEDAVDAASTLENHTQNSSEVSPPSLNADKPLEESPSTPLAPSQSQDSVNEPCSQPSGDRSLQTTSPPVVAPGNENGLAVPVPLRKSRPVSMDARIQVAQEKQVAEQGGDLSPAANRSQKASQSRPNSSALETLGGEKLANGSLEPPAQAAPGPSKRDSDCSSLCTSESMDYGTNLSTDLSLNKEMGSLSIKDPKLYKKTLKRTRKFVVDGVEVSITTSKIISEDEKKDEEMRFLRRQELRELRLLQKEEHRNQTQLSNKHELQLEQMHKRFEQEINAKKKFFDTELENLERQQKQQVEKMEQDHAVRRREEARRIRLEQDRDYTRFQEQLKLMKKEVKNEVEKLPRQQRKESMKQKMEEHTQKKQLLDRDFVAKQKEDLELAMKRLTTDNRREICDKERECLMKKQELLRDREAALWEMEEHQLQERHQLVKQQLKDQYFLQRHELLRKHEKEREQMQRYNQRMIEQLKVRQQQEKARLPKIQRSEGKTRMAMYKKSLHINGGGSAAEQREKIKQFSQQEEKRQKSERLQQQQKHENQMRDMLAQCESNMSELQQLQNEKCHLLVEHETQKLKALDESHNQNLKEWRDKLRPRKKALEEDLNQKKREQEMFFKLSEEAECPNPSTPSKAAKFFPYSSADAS

Q: Which Emax (NCI-H1155) does the source give for `C[C@@H](Oc1cc(-n2cnc3ccc(CN4CCN(C)CC4)cc32)sc1C(N)=O)c1ccccc1C(F)(F)F` [GSK-461364] here?
A: The Emax was 645%.

Q: And the Emin (ASPC1)?
A: The Emin was 114%.

Q: And the Emin (MDA-MB-231)?
A: Its Emin is 37%.

Q: And the Emin (MDA-MB-453)?
A: Its Emin is 179.6%.

Q: What about the Emin (SK-BR-3 [1]) of the same compound?
A: Its Emin is 54.6%.

Q: And the GI50 (A-427 [2])?
A: Its GI50 is 22.8 nM.

Q: What about the Emax (NCI-H358) of the same compound?
A: Its Emax is 308%.

Q: And the GI50 (SJSA-1 [3])?
A: Its GI50 is 24.4 nM.

Q: What about the Emax (SK-BR-3 [4]) of the same compound?
A: The Emax was 300%.

Q: And the GI50 (DLD-1 [5])?
A: The GI50 was 48.9 nM.

Q: And the GI50 (A-431)?
A: Its GI50 is 16.6 nM.

Q: What about the inhibition [6] of the same compound?
A: The inhibition was 87%.

Q: And the Emin (U2OS)?
A: The Emin was 170.6%.

Q: And the GI50 [7]?
A: Its GI50 is 23.6 nM.

Q: And the GI50 (SW480)?
A: Its GI50 is 130 nM.

Q: And the GI50 (SW-620)?
A: Its GI50 is 6.6 nM.

Q: What about the GI50 (NCI-H727) of the same compound?
A: Its GI50 is 45.2 nM.

Q: And the Activity (COLO 205 [8])?
A: The Activity was “Active”.

Q: And the Emax (SCLC)?
A: The Emax was 834%.

Q: And the GI50 (NCI-H82)?
A: The GI50 was 4.85 nM.

Q: What about the Emax (A-427 [9]) of the same compound?
A: Its Emax is 218%.

Q: What about the Emin (NCI-H522) of the same compound?
A: Its Emin is 125%.

Q: And the inhibition [10]?
A: The inhibition was 86%.

Q: What about the GI50 (A498) of the same compound?
A: Its GI50 is 40.4 nM.

Q: What about the GI50 (SAOS-2) of the same compound?
A: Its GI50 is 14.2 nM.

Q: What about the Emax (Panc 02.03) of the same compound?
A: Its Emax is 420%.

Q: What about the GI50 (HT-1080) of the same compound?
A: Its GI50 is 24.6 nM.

Q: And the Emax [11]?
A: Its Emax is 267%.

Q: And the Emax (U-87 MG)?
A: The Emax was 632%.

Q: And the Emax (PANC-1)?
A: Its Emax is 530%.

Q: What about the Emin (NCI-H322M) of the same compound?
A: Its Emin is 260.3%.

Q: What about the Emin (DLD-1 [12]) of the same compound?
A: Its Emin is 441.3%.

Q: And the Emax (SK-MEL-5)?
A: The Emax was 258%.

Q: And the Activity (COLO 205 [13])?
A: The Activity was “Active”.

Q: What about the IC50 at 72 h [14] of the same compound?
A: Its IC50 at 72 h is 7 nM.

Q: What about the Emax (SJSA-1 [15]) of the same compound?
A: Its Emax is 791%.

Q: And the Emin (PANC-08-13)?
A: Its Emin is 131.3%.

Q: What about the GI50 (HeLa) of the same compound?
A: The GI50 was 21.8 nM.

Q: And the GI50 (T47D)?
A: The GI50 was 9.16 µM.

Q: And the Emin (NCI-N87)?
A: Its Emin is 321.5%.

Q: And the Emin (K562)?
A: Its Emin is 91.2%.
